Results on one molecule are retold here after publication PMC9917099, “The Mycotoxin Patulin Inhibits the Mitochondrial Carnitine/Acylcarnitine Carrier (SLC25A20) by Interaction with Cys136 Implications for Human Health” (International Journal of Molecular Sciences, 2023).

Each structure is given as a SMILES string. Where a chain is given by its changes, count along the chain named.

Holding throughout (type): biochemical
Test [1] concerns the target T1, rat CAC C-less mutant (C23V/C58V/C89S/C136V/C155V/C283S) (Rattus norvegicus, UniProt P97521, C136V/C155V/C23V/C283S/C58V/C89S).
T1 construct: made in house; host or cells: E. coli C0214 (pMW7, inclusion bodies)
T1 sequence (P97521 1-301 C23V/C58V/C89S/C136V/C155V/C283S): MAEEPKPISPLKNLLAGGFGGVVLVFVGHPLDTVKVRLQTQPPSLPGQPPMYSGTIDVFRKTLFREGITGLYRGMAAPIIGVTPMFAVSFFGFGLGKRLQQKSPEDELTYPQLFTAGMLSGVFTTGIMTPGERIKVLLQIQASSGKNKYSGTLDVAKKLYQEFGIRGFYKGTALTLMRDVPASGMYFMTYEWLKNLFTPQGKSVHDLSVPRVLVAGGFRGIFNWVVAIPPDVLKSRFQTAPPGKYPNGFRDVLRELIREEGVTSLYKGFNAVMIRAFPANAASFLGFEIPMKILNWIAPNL
Briefly: Carnitine antiport in proteoliposomes, C-less CAC mutant. The protocol: To shed light on the interaction between PAT and CAC and verify if specific Cys residues were involved, transport experiments on the recombinant rat and human WT CAC and CAC’s rat Cys mutants were performed. As in the case of the native protein, transport activities were measured as [^3H]-carnitine/carnitine antiport in proteoliposomes. […] The PAT inhibition of the WT recombinant protein was only slightly greater compared to the native protein, although compounds and other molecular systems that affect the mycotoxin binding to the native CAC were absent (see above). For identifying the residues involved in the PAT interaction, site-directed Cys mutants were tested for inhibition (Figure 2). […] The choice of this last mutant was due to the proximity of C155 to C136 during some steps of the substrate translocation mechanism. […]
(§1) For the transport assay, 550 μL of proteoliposomes were passed through a Sephadex G-75 column in order to remove the external substrate. […] After finishing the transport reaction, the external radiolabel substrate was removed by gel filtration chromatography (Sephadex G-75), and the intraliposomal radioactivity was measured by liquid scintillation. Transport was measured at 25 °C. […] Transport rates were measured in 10 min, i.e., within the initial linear range of the time course.

The target of test [2] is T2, rat CAC mutant C23V/C58V/C89S/C155V/C283S (Rattus norvegicus, UniProt P97521, C155V/C23V/C283S/C58V/C89S).
T2 construct: made in house; host or cells: E. coli C0214 (pMW7, inclusion bodies)
T2 sequence (P97521 1-301 C23V/C58V/C89S/C155V/C283S): T1 sequence (P97521 1-301 C23V/C58V/C89S/C136V/C155V/C283S) with V136C
In words: Carnitine antiport in proteoliposomes, CAC mutant containing only C136. Here is the method: (§2) To shed light on the interaction between PAT and CAC and verify if specific Cys residues were involved, transport experiments on the recombinant rat and human WT CAC and CAC’s rat Cys mutants were performed. As in the case of the native protein, transport activities were measured as [^3H]-carnitine/carnitine antiport in proteoliposomes. […] The PAT inhibition of the WT recombinant protein was only slightly greater compared to the native protein, although compounds and other molecular systems that affect the mycotoxin binding to the native CAC were absent (see above). For identifying the residues involved in the PAT interaction, site-directed Cys mutants were tested for inhibition (Figure 2). […]
(§3) Figure 2 Dose-response analysis of the PAT inhibition of the CAC recombinant proteins. […] The data are expressed as a percentage of the controls (no PAT addition) and are means ± SD of three independent experiments. […]
as §1

The next test concerns the target T3, rat CAC mutant C136S (Rattus norvegicus, UniProt P97521, C136S).
T3 construct: made in house; host or cells: E. coli C0214 (pMW7, inclusion bodies)
T3 sequence (P97521 1-301 C136S): T1 sequence (P97521 1-301 C23V/C58V/C89S/C136V/C155V/C283S) with V23C, V58C, S89C, V136S, V155C, S283C
Briefly: Carnitine antiport in proteoliposomes, CAC mutant C136S. Here is the method: as §2, §3, §1

In test [3] the target is T4, rat CAC mutant C23V/C58V/C89S/C136V/C283S (Rattus norvegicus, UniProt P97521, C136V/C23V/C283S/C58V/C89S).
T4 construct: made in house; host or cells: E. coli C0214 (pMW7, inclusion bodies)
T4 sequence (P97521 1-301 C23V/C58V/C89S/C136V/C283S): T1 sequence (P97521 1-301 C23V/C58V/C89S/C136V/C155V/C283S) with V155C
In words: Carnitine antiport in proteoliposomes, CAC mutant containing only C155. The protocol: as §2, §3, §1

In the case of `O=C1C=C2C(=CCOC2O)O1` (stereo not shown) [PAT, 4-hydroxy-4H-furo [3,2c] pyran-2 [6H] -one], in test [1], the “effect on transport activity” value is “no effect”. Also, the IC50 result in test [2] is “comparable to the WT”; at rat CAC mutant C136S it was “not possible to detect”; in test [3] it was “not possible to detect”.
